We go through 23 compounds from patent US11999746B2, “Compounds” (GlaxoSmithKline Intellectual Property Development Limited, priority 2014, dated 2024).

SMILES strings stand for the structures. Bounds are passed on as bounds.

One experiment concerns the target T1, Lp-PLA2 in human plasma (Homo sapiens, UniProt Q13093).
T1 construct: from tissue; host or cells: pooled human plasma
T1 sequence (Q13093 22-441): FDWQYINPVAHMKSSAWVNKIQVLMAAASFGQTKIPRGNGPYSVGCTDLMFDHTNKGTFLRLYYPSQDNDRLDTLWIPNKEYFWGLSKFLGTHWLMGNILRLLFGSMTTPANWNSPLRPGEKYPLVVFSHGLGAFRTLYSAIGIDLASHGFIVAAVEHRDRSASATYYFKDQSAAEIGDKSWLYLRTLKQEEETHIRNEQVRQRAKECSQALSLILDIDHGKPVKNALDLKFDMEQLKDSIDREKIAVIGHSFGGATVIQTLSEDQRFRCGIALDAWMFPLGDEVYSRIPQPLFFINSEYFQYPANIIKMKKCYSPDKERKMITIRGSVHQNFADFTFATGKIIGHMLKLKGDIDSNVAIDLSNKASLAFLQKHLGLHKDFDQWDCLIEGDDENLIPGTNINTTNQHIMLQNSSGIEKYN
Kind of experiment: (3a) Lp-PLA2 human plasma Thio-PAF assay. Conditions: (3a) Thio-PAF assay, pooled human plasma; Examples 1-265 and 413-430 were tested here; read-out: pIC50 in the Lp-PLA2 human plasma assay (converted). The class given is biochemical. Put shortly:
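Endogenous Lp-PLA2 activity in frozen pooled human plasma measured as thiol release from 2-thio-PAF, detected by CPM fluorescence (ex 380/em 485). Compound preincubation 30 min; 2-min reaction in HEPES pH 7.4 buffer with NEM, stopped with 5% TFA, read 40 min later at room temperature; values as pIC50.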

Experiment [1] concerns the target T2, recombinant human Lp-PLA2 (Homo sapiens, UniProt Q13093).
T2 sequence (Q13093 22-441): T1 sequence (Q13093 22-441)
Kind of experiment: (1a) PED6 assay, recombinant human Lp-PLA2 (rhLp-PLA2). It is filed as biochemical. Conditions: Examples 1-167 and 413-430 were tested here, one experiment or average of multiple experiments, read-out: rhLp-PLA2 (pIC50) (converted). Put shortly: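 PED6 (2 μM final after 1:1 addition of 4 μM stock) cleavage by rhLp-PLA2 (4 nM working solution) in 50 mM HEPES pH 7.4, 150 mM NaCl, 1 mM CHAPS; compounds preincubated with enzyme 30 minutes, reaction 20 min at room temperature. Fluorescence at ex 480/em 540; pIC50 from curve fit.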

In the case of `O=c1nc(OCc2cc(F)c(Oc3cnn(C(F)(F)F)c3)c(F)c2)cc2n1C[C@H]1COCN21` [Example E151, (S)-6-((3,5-difluoro-4-((1-(trifluoromethyl)-1H-pyrazol-4-yl)oxy)benzyl)oxy)-10,10a-dihydro-1H-oxazolo[3′,4′:3,4]imidazo[1,2-c]pyrimidin-8(3H)-one], the figures for the IC50 (at Lp-PLA2 in human plasma; in experiment [1]) were at most 100 nM and at most 1 nM, respectively.

Turning to `O=c1nc(OCc2cc(F)c(Oc3ccc(C(F)(F)F)nc3)c(F)c2)cc2n1CC1CCCCN21` (stereo not shown) [Example E49, 3-((3,5-difluoro-4-((6-(trifluoromethyl)pyridin-3-yl)oxy)benzyl)oxy)-6,7,8,9,9a,10-hexahydro-1H-pyrido[1′,2′:3,4]imidazo[1,2-c]pyrimidin-1-one], the values for the IC50 (at Lp-PLA2 in human plasma; in experiment [1]) were at most 100 nM and at most 1 nM, respectively.

In the case of `O=c1nc(OCc2cc(F)c(F)c(F)c2)cc2n1C[C@H]1CCCN21` [Example E70, (R)-3-((3,4,5-trifluorobenzyl)oxy)-7,8,8a,9-tetrahydropyrrolo[1′,2′:3,4]imidazo[1,2-c] pyrimidin-1(6H)-one], the IC50 (on Lp-PLA2 in human plasma; in experiment [1]) was at most 100 nM throughout.

Consider `O=c1nc(OCc2cc(F)c(OC3(CCF)CC3)c(F)c2)cc2n1C[C@H]1CCCN21` [Example E105, (R)-3-((3,5-difluoro-4-(1-(2-fluoroethyl)cyclopropoxy)benzyl)oxy)-7,8,8a,9-tetrahydro pyrrolo[1′,2′:3,4]imidazo[1,2-c]pyrimidin-1(6H)-one], for which the IC50 at Lp-PLA2 in human plasma was at most 10000 nM; in experiment [1], at most 100 nM.

In the case of `O=c1nc(OCc2ccc(Oc3ccc(F)c(C(F)(F)F)c3)nc2)cc2n1CC1CCCN21` (stereo not shown) [Example E82, 3-((6-(4-fluoro-3-(trifluoromethyl)phenoxy)pyridin-3-yl)methoxy)-7,8,8a,9-tetrahydro pyrrolo[1′,2′:3,4]imidazo[1,2-c]pyrimidin-1(6H)-one], the IC50 is at most 10000 nM on Lp-PLA2 in human plasma and at most 100 nM in experiment [1].

Regarding `O=c1nc(OCc2cc(F)cc(F)c2)cc2n1C[C@@H]1COCCN21` [Example E133, (R)-7-((3,5-difluorobenzyl)oxy)-3,4,11,11a-tetrahydropyrimido[6′,1′:2,3]imidazo[5,1-c][1,4] oxazin-9(1H)-one], the figures for the IC50 (at Lp-PLA2 in human plasma; in experiment [1]) were at most 10000 nM and at most 100 nM, respectively.

As to `O=c1nc(OCc2cc(F)c(Oc3ccc(C(F)(F)F)nc3)c(F)c2)cc2n1CC1CCCCN21` (stereo not shown) [Example E39, 3-((3,5-Difluoro-4-((6-(trifluoromethyl)pyridin-3-yl)oxy)benzyl)oxy)-6,7,8,9,9a,10-hexahydro 1H-pyrido[1′,2′:3,4]imidazo[1,2-c]pyrimidin-1-one], the IC50 on Lp-PLA2 in human plasma was at most 100 nM; in experiment [1] it was at most 1 nM.

In the case of `O=c1nc(OCc2cccc(F)c2F)cc2n1C[C@@H]1COCCN21` [Example E131, (R)-7-((2,3-difluorobenzyl)oxy)-3,4,11,11a-tetrahydropyrimido[6′,1′:2,3]imidazo[5,1-c][1,4] oxazin-9(1H)-one], the IC50 (on Lp-PLA2 in human plasma; in experiment [1]) was at most 100 nM throughout.

As for `O=c1nc(OCc2cc(F)c(F)c(F)c2)cc2n1CC1CCCN21` (stereo not shown) [Example E89, 3-((3,4,5-Trifluorobenzyl)oxy)-7,8,8a,9-tetrahydropyrrolo[1′,2′:3,4]imidazo[1,2-c] pyrimidin-1(6H)-one], the IC50 at Lp-PLA2 in human plasma is at most 10000 nM; in experiment [1] it was at most 100 nM.

Consider `O=c1nc(OCc2cc(F)c(Oc3ccc(C(F)(F)F)nc3)c(F)c2)cc2n1CC1CCCN21` (stereo not shown) [Example E78, 3-((3,5-Difluoro-4-((6-(trifluoromethyl)pyridin-3-yl)oxy)benzyl)oxy)-7,8,8a,9-tetrahydro pyrrolo[1′,2′:3,4]imidazo[1,2-c]pyrimidin-1(6H)-one], for which the IC50 was at most 100 nM at Lp-PLA2 in human plasma and at most 1 nM in experiment [1].

Consider `N#Cc1cccc(COc2cc3n(c(=O)n2)C[C@@H]2CCCCN32)c1` [Example E33, (S)-3-(((1-Oxo-6,7,8,9,9a,10-hexahydro-1H-pyrido[1′,2′:3,4]imidazo[1,2-c]pyrimidin-3-yl)oxy)methyl)benzonitrile], for which the IC50 on Lp-PLA2 in human plasma was at most 10000 nM; in experiment [1], at most 100 nM.

As to `CN1c2cc(OCc3cc(F)c(F)c(F)c3)nc(=O)n2CC12CCC2` [Example 423, 1′-methyl-7′-((3,4,5-trifluorobenzyl)oxy)-1′H-spiro[cyclobutane-1,2′-imidazo[1,2-c]pyrimidin]-5′(3′H)-one], the IC50 (at Lp-PLA2 in human plasma; in experiment [1]) was at most 100 nM throughout.

In the case of `O=c1nc(OCc2cc(F)cc(F)c2)cc2n1C[C@H]1COCCN21` [Example E129, (S)-7-((3,5-difluorobenzyl)oxy)-3,4,11,11a-tetrahydropyrimido[6′,1′:2,3]imidazo[5,1-c][1,4] oxazin-9(1H)-one], the IC50 (on Lp-PLA2 in human plasma; in experiment [1]) was at most 100 nM throughout.

`O=c1nc(OCc2cc(F)c(OC3(CCF)CC3)c(F)c2)cc2n1C[C@H]1CCCCN21` [Example E62, (R)-3-((3,5-Difluoro-4-(1-(2-fluoroethyl)cyclopropoxy)benzyl)oxy)-6,7,8,9,9a,10-hexahydro-1H-pyrido[1′,2′:3,4]imidazo[1,2-c]pyrimidin-1-one]: the results for the IC50 (at Lp-PLA2 in human plasma; in experiment [1]) were at most 10000 nM and at most 100 nM, respectively.

Turning to `CCn1cc(Oc2c(F)cc(COc3cc4n(c(=O)n3)C[C@H]3COCN43)cc2F)cn1` [Example E160, (S)-6-((4-((1-ethyl-1H-pyrazol-4-yl)oxy)-3,5-difluorobenzyl)oxy)-10,10a-dihydro-1H-oxazolo[3′,4′:3,4]imidazo[1,2-c]pyrimidin-8(3H)-one], the values for the IC50 (at Lp-PLA2 in human plasma; in experiment [1]) were at most 10000 nM and at most 100 nM, respectively.

Take `Cc1ccc(Oc2c(F)cc(COc3cc4n(c(=O)n3)C[C@H]3COCCN43)cc2F)cn1` [Example E125, (S)-7-((3,5-difluoro-4-((6-methylpyridin-3-yl)oxy)benzyl)oxy)-3,4,11,11atetrahydropyrimido[6′,1′:2,3]imidazo[5,1-c][1,4]oxazin-9(1H)-one]: the IC50 on Lp-PLA2 in human plasma was at most 100 nM; in experiment [1], 0.0631 nM.

Regarding `O=c1nc(OCc2ccc(Oc3ccnc(C(F)(F)F)c3)c(F)c2)cc2n1CC1CCCCN21` (stereo not shown) [Example E17, 3-((3-Fluoro-4-((2-(trifluoromethyl)pyridin-4-yl)oxy)benzyl)oxy)-6,7,8,9,9a,10-hexahydro-1H-pyrido[1′,2′:3,4]imidazo[1,2-c]pyrimidin-1-one], the IC50 on Lp-PLA2 in human plasma is at most 100 nM; in experiment [1], at most 1 nM.

For `O=c1nc(OCc2ccc(Oc3cnc(C(F)(F)F)nc3)c(F)c2)cc2n1CC1CCCCN21` (stereo not shown) [Example E46, 3-((3-Fluoro-4-((2-(trifluoromethyl)pyrimidin-5-yl)oxy)benzyl)oxy)-6,7,8,9,9a,10-hexahydro-1H-pyrido[1′,2′:3,4]imidazo[1,2-c]pyrimidin-1-one], the IC50 on Lp-PLA2 in human plasma was at most 100 nM; in experiment [1], at most 1 nM.

For `N#Cc1cc(COc2cc3n(c(=O)n2)CC2CCCCN32)ccc1Oc1ccc(F)c(F)c1` (stereo not shown) [Example E19, 2-(3,4-Difluorophenoxy)-5-(((1-oxo-6,7,8,9,9a,10-hexahydro-1H-pyrido[1′,2′:3,4]imidazo-[1,2-c]pyrimidin-3-yl)oxy)methyl)benzonitrile], the IC50 at Lp-PLA2 in human plasma was at most 100 nM; in experiment [1] it was at most 1 nM.

Regarding `N#Cc1cc(COc2cc3n(c(=O)n2)CC2CCCN32)ccc1Oc1ccc(Cl)c(C(F)(F)F)c1` (stereo not shown) [Example E77, 2-(4-Chloro-3-(trifluoromethyl)phenoxy)-5-(((1-oxo-1,6,7,8,8a,9-hexahydropyrrolo[1,2′:3,4]imidazo[1,2-c]pyrimidin-3-yl)oxy)methyl)benzonitrile], the IC50 was at most 100 nM on Lp-PLA2 in human plasma and at most 1 nM in experiment [1].

For `O=c1nc(OCc2cc(F)c(Oc3ccnc(C(F)(F)F)c3)c(F)c2)cc2n1CC1CCCCN21` (stereo not shown) [Example E37, 3-((3,5-difluoro-4-((2-(trifluoromethyl)pyridin-4-yl)oxy)benzyl)oxy)-6,7,8,9,9a,10-hexahydro-1H-pyrido[1′,2′:3,4]imidazo[1,2-c]pyrimidin-1-one], the IC50 is at most 100 nM on Lp-PLA2 in human plasma and at most 1 nM in experiment [1].

As for `Cc1cc(Oc2c(F)cc(COc3cc4n(c(=O)n3)C[C@H]3COCN43)cc2F)ccn1` [Example E161, (S)-6-((3,5-difluoro-4-((2-methylpyridin-4-yl)oxy)benzyl)oxy)-10,10a-dihydro-1H-oxazolo[3′,4′:3,4]imidazo[1,2-c]pyrimidin-8(3H)-one], the IC50 on Lp-PLA2 in human plasma is at most 10000 nM; in experiment [1], at most 100 nM.

Consider `N#Cc1cc(COc2cc3n(c(=O)n2)C[C@@H]2CCCN32)ccc1Oc1cccc(F)c1` [Example E86, (S)-2-(3-fluorophenoxy)-5-(((1-oxo-1,6,7,8,8a,9-hexahydropyrrolo[1′,2′:3,4]imidazo[1,2-c]pyrimidin-3-yl)oxy)methyl)benzonitrile], for which the IC50 on Lp-PLA2 in human plasma was at most 10000 nM; in experiment [1] it was at most 100 nM.
